This is an account of results in publication PMC7707092, “Discovery and characterization of ORM‐11372, a novel inhibitor of the sodium‐calcium exchanger with positive inotropic activity” (British Journal of Pharmacology, 2020).

Type in all cases: cell-based
Data set [1] deals with hERG KV11.1 current (I hERG) (Homo sapiens, UniProt Q12809). Briefly: KV11.1 channel current (I hERG), QPatch automated patch‐clamp, CHO–hERG cells. From the text: The hERG‐encoded voltage‐dependent potassium channel current (I hERG) cells to be studied were harvested with Detachin solution and either diluted with a volume of CHO cell serum‐free media (supplemented with 100 IU·ml^−1 of penicillin/streptomycin and 25‐mM HEPES) to obtain cells, for which the cell density was ~4 x10^6 cells·ml^−1, or plated on glass coverslips and used on the following 1–2 days. HEK 293 cells were transiently transfected using lipofectamine (Invitrogen, USA), with a human sodium voltage‐gated channel subunit 5 (hSCN5) A (transcript variant 2)‐containing plasmid, in Optimem medium. […]
hERG KV11.1 current (I hERG), sequence (Q12809 whole entry): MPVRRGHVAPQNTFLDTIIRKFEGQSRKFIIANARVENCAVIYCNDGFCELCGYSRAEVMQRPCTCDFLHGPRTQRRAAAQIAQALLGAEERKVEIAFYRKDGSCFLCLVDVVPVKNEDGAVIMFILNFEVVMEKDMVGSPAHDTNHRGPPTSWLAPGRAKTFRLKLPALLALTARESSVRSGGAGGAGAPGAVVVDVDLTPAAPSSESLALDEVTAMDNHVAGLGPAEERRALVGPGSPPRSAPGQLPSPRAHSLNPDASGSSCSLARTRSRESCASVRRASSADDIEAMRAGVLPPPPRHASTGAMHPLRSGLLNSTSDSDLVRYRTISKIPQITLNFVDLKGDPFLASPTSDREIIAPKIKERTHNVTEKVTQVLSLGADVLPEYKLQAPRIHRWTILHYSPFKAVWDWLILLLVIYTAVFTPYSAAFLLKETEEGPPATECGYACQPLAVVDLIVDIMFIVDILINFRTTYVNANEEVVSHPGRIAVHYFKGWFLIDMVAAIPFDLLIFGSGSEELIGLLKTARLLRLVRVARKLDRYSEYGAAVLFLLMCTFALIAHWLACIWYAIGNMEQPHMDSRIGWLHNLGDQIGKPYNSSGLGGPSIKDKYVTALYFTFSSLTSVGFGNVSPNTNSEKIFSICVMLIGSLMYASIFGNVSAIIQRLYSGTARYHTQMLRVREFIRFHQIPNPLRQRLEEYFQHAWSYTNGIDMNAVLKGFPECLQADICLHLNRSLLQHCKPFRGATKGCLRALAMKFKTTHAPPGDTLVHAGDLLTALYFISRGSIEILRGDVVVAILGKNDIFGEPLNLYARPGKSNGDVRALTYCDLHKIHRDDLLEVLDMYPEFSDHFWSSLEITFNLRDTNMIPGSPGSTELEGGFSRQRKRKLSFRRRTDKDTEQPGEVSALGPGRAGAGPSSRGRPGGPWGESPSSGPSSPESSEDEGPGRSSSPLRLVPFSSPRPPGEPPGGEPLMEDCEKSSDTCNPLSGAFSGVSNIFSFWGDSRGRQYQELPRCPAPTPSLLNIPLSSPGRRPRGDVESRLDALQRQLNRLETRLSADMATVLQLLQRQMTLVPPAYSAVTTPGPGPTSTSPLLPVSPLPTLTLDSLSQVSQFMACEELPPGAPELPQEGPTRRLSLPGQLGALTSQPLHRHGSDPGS
In addition, after loading the CHO–hERG cell suspension, whole‐cell voltage‐clamp values were recorded at room temperature on a QPatch 16× automated patch‐clamp (Sophion Biosciences), in the single‐hole mode. […] The hERG tail current was measured as the difference between the peak tail current amplitude during the repolarization step and leak current measurement step. Subsequently, the voltage dependence of the block was also assessed, by carrying out depolarization for 4 s, from −80 to +60 mV in 10‐mV steps, before and after the addition of 20‐μM ORM‐11372 (n = 7). The peak tail current elicited during the 5 s repolarization step to −50 mV was measured and plotted against the preceding depolarization step voltage values.
(In general: hERG is a cardiac potassium channel; its block is linked to QT prolongation.)

Another data set deals with T1, h5‐HT2A receptors (Homo sapiens, UniProt P28223).
T1 construct: host or cells: recombinant HEK 293
T1 sequence (P28223 whole entry): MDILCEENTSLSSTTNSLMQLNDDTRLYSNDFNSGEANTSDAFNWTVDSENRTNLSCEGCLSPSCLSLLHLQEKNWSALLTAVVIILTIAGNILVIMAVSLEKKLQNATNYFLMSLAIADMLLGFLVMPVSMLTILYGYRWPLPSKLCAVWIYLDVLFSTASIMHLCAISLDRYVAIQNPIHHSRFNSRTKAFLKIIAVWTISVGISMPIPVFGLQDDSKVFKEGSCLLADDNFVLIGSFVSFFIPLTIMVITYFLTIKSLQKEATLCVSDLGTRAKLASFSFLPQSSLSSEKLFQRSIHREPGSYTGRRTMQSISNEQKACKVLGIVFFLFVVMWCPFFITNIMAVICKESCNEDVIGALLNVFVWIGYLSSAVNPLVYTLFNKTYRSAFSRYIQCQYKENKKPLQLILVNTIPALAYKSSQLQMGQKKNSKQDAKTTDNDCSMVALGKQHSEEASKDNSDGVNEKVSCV
Briefly: h5‐HT2A agonism and antagonism, intracellular calcium in recombinant HEK 293 cells. The following applies: maximum concentration 10 μM. Here is the method:
Radioligand binding assays were performed at Eurofins Cerep SA (Celle L'Evescault, France), for testing the inhibition capacity of ORM‐11372 (at 10 μM with two replicates), in over 75 targets. These included receptors (e.g., human A1, A2A, and A3 adenosine receptors; α1 and α2 adrenoceptors; human β1–β3 adrenergic receptors; human D1, D2S, D3, D4.4, and D5 dopamine receptors; EGF and VEGF receptors; human M1–M5 muscarinic ACh receptors; human 5‐HT1A, 5‐HT2A, 5‐HT2B, 5‐HT2C, 5‐HT4e, 5‐HT5A, 5‐HT6, and 5‐HT7 receptors), ion channels (5‐HT3, Ca^2+, ATP‐dependent potassium channel [KATP], voltage‐dependent potassium channel [KV], small‐conductance calcium‐dependent potassium channel [SKCa], Na^+, and Cl^−), and transporters (adenosine, noradrenaline, dopamine, and 5‐HT). Follow‐up functional studies (with five concentrations and two replicates) were performed for 5‐HT2A receptors and noradrenaline transporter. Agonism and antagonism at h5‐HT2A receptors was explored in recombinant HEK 293 cells and intracellular calcium changes were detected using fluorimetry. Noradrenaline uptake was measured by carrying out scintillation counting of [^3H]noradrenaline incorporated into rat hypothalamus synaptosomes.
In general terms: Calcium assays in cells follow changes in intracellular calcium, usually with a dye or a luminescent sensor.

The target in data set [2] is T2, human NaV1.5 channel current (I Na) (Homo sapiens, UniProt Q14524).
T2 construct: host or cells: HEK 293, transient (lipofectamine)
T2 sequence (Q14524 1-2015 isoform Q14524-2): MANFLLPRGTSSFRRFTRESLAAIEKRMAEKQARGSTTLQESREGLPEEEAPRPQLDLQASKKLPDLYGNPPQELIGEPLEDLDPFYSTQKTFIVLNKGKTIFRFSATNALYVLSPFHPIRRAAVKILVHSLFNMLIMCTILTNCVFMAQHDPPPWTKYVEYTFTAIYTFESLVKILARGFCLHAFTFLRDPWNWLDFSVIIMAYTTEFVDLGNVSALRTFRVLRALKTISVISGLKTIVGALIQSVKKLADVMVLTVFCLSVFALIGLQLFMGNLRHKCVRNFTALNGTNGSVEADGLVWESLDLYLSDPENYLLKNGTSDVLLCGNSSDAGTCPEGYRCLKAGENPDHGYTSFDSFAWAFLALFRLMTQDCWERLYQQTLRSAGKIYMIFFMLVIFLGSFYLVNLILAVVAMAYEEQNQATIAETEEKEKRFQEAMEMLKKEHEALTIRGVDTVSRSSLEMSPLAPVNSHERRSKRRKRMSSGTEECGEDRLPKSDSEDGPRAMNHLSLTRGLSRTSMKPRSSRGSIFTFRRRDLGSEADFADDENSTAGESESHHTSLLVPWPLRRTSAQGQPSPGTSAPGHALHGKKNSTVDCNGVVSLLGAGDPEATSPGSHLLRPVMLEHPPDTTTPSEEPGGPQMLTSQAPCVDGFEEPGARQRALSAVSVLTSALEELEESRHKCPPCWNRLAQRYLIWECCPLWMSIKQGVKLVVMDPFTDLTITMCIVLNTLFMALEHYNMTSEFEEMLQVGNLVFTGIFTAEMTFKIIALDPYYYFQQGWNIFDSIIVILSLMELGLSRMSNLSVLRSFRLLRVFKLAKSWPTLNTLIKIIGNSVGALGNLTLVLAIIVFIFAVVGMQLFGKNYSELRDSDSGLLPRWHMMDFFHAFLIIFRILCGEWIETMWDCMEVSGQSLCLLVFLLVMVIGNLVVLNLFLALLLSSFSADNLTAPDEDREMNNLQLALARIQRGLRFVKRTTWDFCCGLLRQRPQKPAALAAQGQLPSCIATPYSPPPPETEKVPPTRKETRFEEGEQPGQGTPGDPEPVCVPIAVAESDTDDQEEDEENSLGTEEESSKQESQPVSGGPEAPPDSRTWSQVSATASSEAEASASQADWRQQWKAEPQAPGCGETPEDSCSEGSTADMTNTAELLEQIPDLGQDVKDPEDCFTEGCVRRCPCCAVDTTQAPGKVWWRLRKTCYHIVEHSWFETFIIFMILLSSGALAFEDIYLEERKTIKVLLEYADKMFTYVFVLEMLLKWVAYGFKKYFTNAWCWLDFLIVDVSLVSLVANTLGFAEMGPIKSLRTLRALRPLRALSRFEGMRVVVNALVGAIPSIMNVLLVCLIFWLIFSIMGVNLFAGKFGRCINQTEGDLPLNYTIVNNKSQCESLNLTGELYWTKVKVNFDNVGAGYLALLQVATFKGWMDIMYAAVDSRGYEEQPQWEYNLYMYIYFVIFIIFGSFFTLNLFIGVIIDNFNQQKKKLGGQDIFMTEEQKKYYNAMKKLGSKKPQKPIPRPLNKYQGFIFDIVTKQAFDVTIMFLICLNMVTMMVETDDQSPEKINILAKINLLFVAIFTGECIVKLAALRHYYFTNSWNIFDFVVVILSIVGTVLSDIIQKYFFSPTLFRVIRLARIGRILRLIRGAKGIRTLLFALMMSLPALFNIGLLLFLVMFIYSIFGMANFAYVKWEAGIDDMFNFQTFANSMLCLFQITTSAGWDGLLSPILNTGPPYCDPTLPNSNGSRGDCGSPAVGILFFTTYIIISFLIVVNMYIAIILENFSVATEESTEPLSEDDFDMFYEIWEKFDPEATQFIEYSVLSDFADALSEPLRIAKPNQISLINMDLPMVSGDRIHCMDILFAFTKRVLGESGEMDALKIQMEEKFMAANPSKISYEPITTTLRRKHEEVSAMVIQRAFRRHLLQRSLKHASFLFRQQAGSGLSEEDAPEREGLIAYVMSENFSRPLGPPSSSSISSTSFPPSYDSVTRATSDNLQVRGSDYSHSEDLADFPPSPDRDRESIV
The data set can be described thus: NaV1.5 channel current (I Na), patch‐clamp in HEK cells. The note with it: room temperature. From the text:
The hERG‐encoded voltage‐dependent potassium channel current (I hERG) cells to be studied were harvested with Detachin solution and either diluted with a volume of CHO cell serum‐free media (supplemented with 100 IU·ml^−1 of penicillin/streptomycin and 25‐mM HEPES) to obtain cells, for which the cell density was ~4 x10^6 cells·ml^−1, or plated on glass coverslips and used on the following 1–2 days. HEK 293 cells were transiently transfected using lipofectamine (Invitrogen, USA), with a human sodium voltage‐gated channel subunit 5 (hSCN5) A (transcript variant 2)‐containing plasmid, in Optimem medium. After a 5‐h incubation period, the transfection medium was replaced with the normal growth medium. The cells were harvested by trypsinization, centrifuged and resuspended in the appropriate extracellular solution for performing studies the next day. CHO–5‐HT2B cells were plated into 96‐well plates on the previous day, at a density of 4 x10^4 cells per well, with a modified version of the growth media.
Manual patch‐clamp recordings of membrane currents (I NCX, L‐type Ca^2+ channel current [I CaL], human cardiac sodium 1.5 current [I Na], and I hERG) were undertaken using either an Axopatch 200B or Axopatch ID amplifier (Molecular Devices, USA), using the whole‐cell configuration. […]

As a reminder, the IC50 is the concentration that gives 50% inhibition. A higher IC50 goes with weaker potency in that assay. In the case of `Nc1cccc(-c2ccc(CNc3ccc(F)cc3)o2)c1` [ORM‐11372], the “slope k of I hERG activation curve (Boltzmann fit)” value in data set [1] (20 µM ORM-11372, n=7, control 6.9 ± 0.3 mV) is reported as 5.5 ± 0.1 mV. Moreover, the IC50 in data set [1] (automated patch‐clamp, room temperature) turned out to be 19.2 µM; in data set [2], 23.2 µM. In addition, the “agonism / antagonism at 5‐HT2A receptors” value on h5‐HT2A receptors was “Neither agonism nor antagonism”.
